In US20120203161A1, “DEUTERATED WATER AND RIBOFLAVIN SOLUTION FOR EXTENDING SINGLET OXYGEN LIFETIMES IN TREATMENT OF OCULAR TISSUE AND METHOD OF USE” (SEROS MEDICAL, LLC, priority 2009, published 2012):

System: endothelial cell

For `[2H]O[2H]` [deuterated water, deuterium oxide], the endothelial cell apoptosis was “does not induce endothelial cell apoptosis”.
